Two compounds from paper PMC5537068, “Endoglucanase activity at a second site in Pyrococcus furiosus triosephosphate isomerase—Promiscuity or compensation for a metabolic handicap?” (FEBS Open Bio, 2017) can be followed below.

Assay [1] concerns the target T1, PfuTIM (Pyrococcus furiosus, UniProt P62002, E144G).
T1 construct: gene tpiA; full-length, 6xHis tag from pQE30 (BamHI/HindIII), tag kept; E. coli M15[pREP4]; IMAC and gel filtration; monomer ~25 kDa; octamer in Tris, hexamer in phosphate
Kind of assay: resorufin release, absorbance at […] nm. Type of assay: biochemical. Conditions: 37 °C, overnight incubation.

The target in assay [2] is T2, PfuTIM (Pyrococcus furiosus, UniProt P62002).
T2 construct: gene tpiA; full-length, 6xHis tag from pQE30 (BamHI/HindIII), tag kept; E. coli M15[pREP4]; IMAC and gel filtration; monomer ~25 kDa; octamer in Tris, hexamer in phosphate
T2 sequence (P62002 whole entry): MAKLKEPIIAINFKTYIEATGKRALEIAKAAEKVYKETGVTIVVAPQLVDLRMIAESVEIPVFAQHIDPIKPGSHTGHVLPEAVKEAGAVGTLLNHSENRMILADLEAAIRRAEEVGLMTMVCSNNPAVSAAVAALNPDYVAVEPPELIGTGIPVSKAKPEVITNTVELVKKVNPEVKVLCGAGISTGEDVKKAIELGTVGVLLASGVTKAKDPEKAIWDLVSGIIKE
Briefly: resorufin release, absorbance at […] nm. Type of assay: biochemical. Conditions: pH 6.0, 35 °C; phosphate-purified enzyme 2 μM; substrate 2.5-250 μM; promiscuous endoglucanase activity, second site.

Assay [3] addresses T2, PfuTIM. Briefly: inhibition of cellobioside-resorufin hydrolysis, absorbance at […] nm. It counts as biochemical. Conditions: enzyme 2 μM; cellobioside-resorufin 100 μM; norharman 25 μM; endoglucanase activity; headed as competitive.
The target of assay [4] is T2, PfuTIM. Briefly: intrinsic tryptophan fluorescence quenching, hyperbolic fit. Type of assay: binding.

SMILES strings stand for the structures.

T1 sequence (P62002 whole entry E144G): as the sequence (P62002 whole entry) above, with E144G counted along it

For `O=c1ccc2nc3ccc(O[C@@H]4O[C@H](CO)[C@@H](O[C@@H]5O[C@H](CO)[C@@H](O)[C@H](O)[C@H]5O)[C@H](O)[C@H]4O)cc3oc-2c1` [cellobioside–resorufin], the “% of wild-type activity” value at PfuTIM [1] is listed as “percentages of activity with respect to the wild‐type protein are plotted, for assays with cellobioside–resorufin”. For the same compound, the Km at PfuTIM [2] is listed as ~ 53.62 ± 4.05 μM.
As for `c1ccc2c(c1)[nH]c1cnccc12` [norharman], on PfuTIM [3], the “complete inhibition at 25 μM” value was “With norharman, complete inhibition of endoglucanase/cellulase activity is seen”. In addition, the Kd on PfuTIM [4] was roughly 83 µM.

For orientation: Kd means a measure of binding affinity in units of concentration. A low value points to a tighter complex.
